# Measured values: publication PMC12591169 (Advanced Science, 2025)
# “Also recorded” adds a separate entry of the source. Non-standard residues stand in square brackets, D forms with d. pT = C[C@@H](OP(=O)(O)O)[C@H](N)C(=O)O
# B1: LRRK2_(928-942)pS935 15mer peptide of leucine-rich repeat kinase 2 (peptide)
# peptide: NLQRHSNSLGPIFDH
# HELM: PEPTIDE1{[ac].N.L.Q.R.H.S.N.[O=C([C@H](COP(=O)(O)O)N[*:1])[*:2]].L.G.P.I.F.D.H.[am]}$$$$V2.0
# SMILES: CC[C@H](C)[C@H](NC(=O)[C@@H]1CCCN1C(=O)CNC(=O)[C@H](CC(C)C)NC(=O)[C@H](COP(=O)(O)O)NC(=O)[C@H](CC(N)=O)NC(=O)[C@H](CO)NC(=O)[C@H](Cc1c[nH]cn1)NC(=O)[C@H](CCCNC(=N)N)NC(=O)[C@H](CCC(N)=O)NC(=O)[C@H](CC(C)C)NC(=O)[C@H](CC(N)=O)NC(C)=O)C(=O)N[C@@H](Cc1ccccc1)C(=O)N[C@@H](CC(=O)O)C(=O)N[C@@H](Cc1c[nH]cn1)C(N)=O
# notes: leucine-rich repeat kinase 2, residues 928-942, phosphorylated at S935; source: synthetic peptide (Synpeptide Ltd)
# B2: ERα_(581-595)pT594 15mer peptide of estrogen receptor α (peptide)
# peptide: Ac-KYYITGEAEGFPA[pT]V-OH
# notes: estrogen receptor α, residues 581-595, phosphorylated at T594 ('mode 3' C-terminal motif); source: synthetic peptide (Synpeptide Ltd)
# Columns and labels:
# 14‐3‐3ζ /E6 oncoprotein = conditions: crystallography; cited from earlier work
# 14‐3‐3σ/ERα complex = experiment: HDX‐MS of 14‐3‐3σ/ERα complex with and without FC‐A; format: binding
# Description: (§1) Maximally deuterated samples were analyzed in triplicate.
# (§2) Eluted peptides were directly infused into the mass spectrometer. Mobile phases were kept on ice.
# (§3) (Thermo Fisher Scientific). […] Peptides with >20 residues were excluded from analysis.
# 14‐3‐3/LRRK2 complex [1] = experiment: Native MS of 14‐3‐3σ/LRRK2 with FC‐A; format: binding; conditions: 14‐3‐3 5 µM, LRRK2 1:2 ratio, FC‐A 50 µM (1:2:10); Figure S14e; proposed explanation of HDX protection
# Description: (§4) LC‐MS grade dimethyl sulfoxide (DMSO) was purchased from Fisher Scientific. Lypholized ERα581‐595 15mer peptide (Ac‐[…](pT)V‐COOH, Synpeptide Ltd) and lypholized LRRK2_928‐942 15mer peptide (Ac‐NLQRHSN(pS)LGPIFDH‐CONH2, Synpeptide Ltd) were diluted into 100 mM ammonium acetate to make peptide stocks of 1 mM and stored at ‐20 °C prior to use. Fusicoccin A (FC‐A) was provided as a gift from Yusuke Higuchi. It was obtained as a metabolite of wildtype Phomopsis amygdali and genetically modified Phomopsis amygdali Niigata‐2 as reported previously^[ [62] ^] FC‐A stocks were stored in 100% DMSO at […] at ‐80 °C. 14‐3‐3 was buffer exchanged into 100 mM ammonium acetate (pH 6.8) using a 10 kDa molecular weight cut‐off Amicon Ultra centrifugal filter (Merck Millipore) and stored at ‐80 °C prior to use. To form the 14‐3‐3/ERα complex, 14‐3‐3 (5 µM) was incubated with ERα (1:1 ratio) in the presence and absence of FC‐A (50 µM) (1:1:10 ratio) for 10 min on ice or at 10 min, 5 h or 24 h at room temperature to mimic HDX conditions (Figure S16, Supporting Information). To form the 14‐3‐3/LRRK2 complex, 14‐3‐3 (5 µM) was incubated with LRRK2 (1:2 ratio) in the presence and absence of FC‐A (50 µM) (1:2:10 ratio). 14‐3‐3 binding ratios were optimized to enable single and double‐bound complex formation. 14‐3‐3 protein complexes were directly infused into the mass spectrometer. […]
# 14‐3‐3/LRRK2 complex [2] = conditions: HDX‐MS, 14‐3‐3σ 100 µM, LRRK2 200 µM, FC‐A 1 mM
# Description: To form the 14‐3‐3/LRRK2 complex, 14‐3‐3σ in 25 mM HEPES, 200 mM NaCl, and 10 mM MgCl2 pH 8.0 (100 µM) was incubated with LRRK2 (200 µM) for 10 min on ice. To form the stabilized complex, 14‐3‐3σ (100 µM) was incubated with LRRK2 (200 µM) and FC‐A (1 mM) for 10 min on ice. Control incubations with 14‐3‐3σ (100 µM) in isolation were also performed. A final concentration of 10% DMSO was used for all experiments.
# Deuterium labelling was carried out by diluting 14‐3‐3, 14‐3‐3/ERα, 14‐3‐3/ERα/FC‐A, 14‐3‐3/LRRK2 and 14‐3‐3/LRRK2/FC‐A tenfold with 100 mM ammonium acetate 99.9% D2O pD 7.2 and incubating for 10 min, 5 h, and 24 h at room temperature. The reaction was quenched by removal of 50 µL protein complex at each time‐point and adding 30 µL 4 M urea, 200 mM potassium phosphate buffer, pH 2.4, followed by flash freezing in liquid nitrogen and stored at ‐80 °C. […] Each time point was analysed in triplicate by LC‐MS with the exception of the 10‐min timepoint for LRRK2, analysed in duplicate. Non‐deuterated control samples were analysed in triplicate by LC‐MS for ERα complexes and duplicate for LRRK2 complexes.
# Maximally deuterated samples were prepared by buffer exchanging 14‐3‐3 into 100 mM ammonium acetate 99.9% D2O pD 7.2 at 20 °C using a 10 kDa molecular weight cut‐off Amicon Ultra centrifugal filter (Merck Millipore). […] Maximally deuterated samples were analyzed in triplicate. […]
# 14-3-3•LRRK2 complex = conditions: Fig. S3; protein partner occupies the FC-A binding site; ref PDB 5MY9; cited from earlier work
# From the text: (§5) Top: Insert of the amphipathic binding groove of 14-3-3 showing binding of FC-A (green) to the 14-3-3•ERα complex (pink) (PDB 4JDD). 14-3-3σ residues involved in binding FC-A and ERα are labelled in grey. […] For illustrati ...
# [3] = tested on: 14-3-3•ERα protein complex; conditions: ref PDB 4JDD, cited from earlier work
# From the text: as §5
# 14-3-3σ/ERα = conditions: 14-3-3:ERα:FC-A 1:1:10, 14‐3‐3 5 µM, FC‐A 50 µM, 100 mM ammonium acetate (pH 6.8), 0.5% DMSO; 3 replicates
# Description: as §4
# 14‐3‐3/ERα = conditions: cited from earlier work
# From the text: (§6) Overall, we have highlighted the usefulness of applying HDX‐MS to characterize molecular glues. […] This information was captured on minute‐hour HDX‐MS timescales; however, it is important to optimize HDX‐MS timescales when applying this method to study alternate protein systems. Indeed, shorter timescales might be preferential to capture the most valuable information.
# 14-3-3σ [4] = experiment: Native MS of 14‐3‐3σ with ERα; format: binding; conditions: 14‐3‐3 5 µM, 1:1 ratio, 100 mM ammonium acetate (pH 6.8), 0.5% DMSO, absence of FC-A; 3 replicates
# Description: as §4
# 14‐3‐3σ = experiment: HDX‐MS of 14‐3‐3σ with and without ERα or LRRK2 peptide; format: binding; conditions: for protection of 14‐3‐3σ from deuterium exchange upon peptide binding: 14‐3‐3σ 100 µM, ERα 100 µM or LRRK2 200 µM, diluted tenfold into 100 mM ammonium acetate 99.9% D2O pD 7.2, room temperature, 10 min, 5 h, 24 h, 10% DMSO, n = 3 (LRRK2 10 min: duplicate); for protection of 14‐3‐3σ from deuterium exchange at H8 upon peptide binding: H8, located distally from the binding groove
# Description: as §1, §2, §3
# 14‐3‐3 [5] = conditions: binary complex, without FC‐A; read-out: Kd for the binary complex 14‐3‐3/ERα; cited from earlier work
# From the text: as §6
# 14‐3‐3 [6] = conditions: cited from earlier work
# 14‐3‐3 [7] = conditions: FRET; cited from earlier work
# 14-3-3σ [8] = molecular target: T1, 14-3-3σ (UniProt P31947 1-248); experiment: HDX-MS; 14-3-3σ (100 µM) incubated with ERα peptide (100 µM) or LRRK2 peptide (200 µM), with or without FC-A (1 mM), 10 min on ice, in 25 mM HEPES, 200 mM NaCl, 10 mM MgCl2 pH 8.0, 10% DMSO; diluted tenfold in 100 mM ammonium acetate 99.9% D2O pD 7.2; labelled 10 min, 5 h and 24 h at room temperature; deuterium uptake read on 14-3-3σ peptides (pepsin/nepenthesin-2); conditions: both partners purified
# T1 construct: 14-3-3 protein sigma, full length
# T1 sequence (looked up): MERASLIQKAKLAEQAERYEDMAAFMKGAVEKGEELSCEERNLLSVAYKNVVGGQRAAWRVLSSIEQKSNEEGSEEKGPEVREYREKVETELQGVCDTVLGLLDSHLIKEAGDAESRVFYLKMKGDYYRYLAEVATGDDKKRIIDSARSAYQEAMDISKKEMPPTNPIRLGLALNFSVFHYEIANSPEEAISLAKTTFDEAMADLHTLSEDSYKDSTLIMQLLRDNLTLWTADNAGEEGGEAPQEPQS
molecule,measurement,setting,value
"C=CC(C)(C)OC[C@H]1O[C@H](O[C@@H]2C3=C([C@H](C)COC(C)=O)C[C@H](O)[C@]3(C)/C=C3/[C@@H](COC)CC[C@H]3[C@@H](C)[C@H]2O)[C@H](O)[C@@H](OC(C)=O)[C@@H]1O [FC‐A, Fusicoccin A]",conformational change of 14‐3‐3ζ upon addition of FC‐A,14‐3‐3ζ /E6 oncoprotein,closure of H9
same,additional protection from deuterium exchange of 14‐3‐3σ/ERα upon FC‐A addition,"14‐3‐3σ/ERα complex; HDX‐MS, 14‐3‐3σ 100 µM, ERα 100 µM, FC‐A 1 mM, diluted tenfold into D2O buffer pD 7.2, room temperature, 10 min, 5 h, 24 h, 10% DMSO, n = 3","additional protection was observed in several peptides; also recorded: increased protection on H3, H7 and H9; also recorded: protection toward the N‐terminus of H3 and H5 between residues 37–45 and 117–122; also recorded: between residues 85–100 on H4 and residues 26–36 on H2; also recorded: additional protection from deuterium labelling"
same,closure of H9 upon FC‐A addition to 14‐3‐3σ/ERα,"14‐3‐3σ/ERα complex; HDX‐MS, pD 7.2, room temperature",Evidence of this H9 closure was not observed
same,"peptides with main differences in HDX uptake, 14‐3‐3σ/ERα vs 14‐3‐3σ/ERα/FC‐A","14‐3‐3σ/ERα complex; difference plot over all time points (10 min, 5 h, 24 h)","peptides 23–35, 45-51, 71-73, 92-114 and 120-122"
same,interaction between FC‐A and the 14‐3‐3/LRRK2 complex,14‐3‐3/LRRK2 complex [1],low affinity interaction
same,additional protection of 14‐3‐3/LRRK2 in regions of the LRRK2 binding interface upon FC‐A addition,"14‐3‐3/LRRK2 complex [2]; diluted tenfold into D2O buffer pD 7.2, room temperature, 10% DMSO",No additional protection was observed in regions involved in the LRRK2 binding interface suggesting no stabilization effect
same,level of protection of residues 37 to 45 (FC‐A binding region) in 14‐3‐3/LRRK2 upon FC‐A addition,"14‐3‐3/LRRK2 complex [2]; pD 7.2, room temperature",~8%
same,stabilization of 14-3-3•LRRK2 complex by FC-A,14-3-3•LRRK2 complex,does not stabilize
same,stabilization of 14-3-3•ERα complex by FC-A,"[3]; Fig. S3, PDB 4JDD",binds and stabilizes
same,14-3-3σ/ERα residues interacting with FC-A,[3]; Fig. S3,"N42, D215 and K122 interact with FC-A"
same,"shift of binding equilibrium upon FC-A addition, native MS",14-3-3σ/ERα,the binding equilibrium is shifted to the fully stabilized ternary complex
same,increase of 14‐3‐3/ERα affinity by the molecular glue,14‐3‐3/ERα; FC‐A,> 10 fold
"Ac‐KYYITGEAEGFPA(pT)V‐COOH (Ac-KYYITGEAEGFPA[pT]V-OH) [ERα, lypholized ERα581‐595 15mer peptide, phosphorylated mimetic of estrogen receptor α]",ERα complexes with 14-3-3 observed by native MS,14-3-3σ [4],singly and doubly bound ERα is observed in complex
same,protection of 14‐3‐3σ from deuterium exchange upon peptide binding,14‐3‐3σ,"Protection from deuterium labelling occurs; also recorded: peptides located in helices H3, H7 and H9 showed significant levels of protection after 24 h"
same,protection of 14‐3‐3σ from deuterium exchange at H8 upon peptide binding,"14‐3‐3σ; pD 7.2, room temperature",protection was also observed at H8
same,"dynamics and flexibility of 14‐3‐3 dimer interface (residues 85–100 on H4, 26–36 on H2) upon ERα binding","14‐3‐3σ; pD 7.2, room temperature",a reduction in dynamics and protein flexibility
same,Kd,14‐3‐3 [5],1600 ± 300 nM
same,Kd,14‐3‐3/ERα; in the presence of FC‐A,100 ± 30 nM
"Ac‐NLQRHSN(pS)LGPIFDH‐CONH2 [LRRK2, lypholized LRRK2_928‐942 15mer peptide, phosphorylated mimetic of leucine‐rich repeat kinase 2]",binding affinity for 14‐3‐3 relative to ERα,14‐3‐3 [6],lower binding affinity
same,protection of 14‐3‐3σ from deuterium exchange upon peptide binding,14‐3‐3σ,identical areas of protection were observed upon LRRK2 binding; also recorded: the level of protection decreased relative to ERα
same,protection of 14‐3‐3σ from deuterium exchange at H8 upon peptide binding,"14‐3‐3σ; pD 7.2, room temperature",protection was also observed at H8
tyrosine hydroxylase: protein partner titrated in a previous FRET study of 14‐3‐3 dimerization,14‐3‐3 dimer stability upon titration,14‐3‐3 [7],increased dimer stability
B1,binding result,14-3-3σ [8],binds
B2,binding result,14-3-3σ [8],binds
